Our source for the inhibition and IC50 values is patent US20210395256A1, “TYROSINE KINASE INHIBITORS, COMPOSITIONS AND METHODS THERE OF” (Betta Pharmaceuticals Co., Ltd., priority 2018, published 2021).

The target in one data set is T1, CYP3A4 (Homo sapiens, UniProt P08684).
T1 construct: from tissue; host or cells: human liver microsomes
The data set can be described thus: Cytochrome P450 inhibition, CYP3A4. In kind it is in vitro ADME. As to conditions: 10 μM compound, human liver microsomes; for inhibition at 5 min, 10 µM: probe Midazolam (5 μM), substrate Midazolam, read-out: Inhibition percentage CYP3A4 (Midazolam); for inhibition at 10 min, 10 µM: probe Testosterone (50 μM), substrate Testosterone, read-out: Inhibition percentage CYP3A4 (Testosterone). The protocol:
(§1) Example 205 Cytochrome P450 Measurements
(§2) The cytochrome P450 was measured as the following procedure:
(§3) 1) A master solution containing phosphate buffer, ultra-pure H2O, MgCl2 solution and human liver microsomes was made according to Table 17, and then 1 μL of 2 mM of compound solution or 1 μL of DMSO (as without inhibitor control) was added to the above master solution. The final concentration of test compounds or control compounds was 10 μM.
6) For CYP3A4 inhibition, 1 μL of specific drug substrate (Midazolam: 1 mM) was added at the final concentration of 5 μM to the above solution.
7) For CYP3A4 inhibition, 1 μL of specific drug substrate (Testosterone: 10 mM) was added at the final concentration of 50 μM to the above solution.
(§4) 8) The mixture was pre-warmed at 37° C. for 5 min. The reaction was started by the addition of 20 μL of 10 mM NADPH solution at the final concentration of 1 mM and carried out at 37° C.
(§5) 9) The reaction was stopped by addition of 300 μL of cold quench solution (methanol containing internal standards (1S, 500 nM Labetalol, 100 nM Alprazolam and 2 μM Ketoprofen) at the designated time points (Phenacetin: 20 min; Paclitaxel: 10 min; Tolbutamide: 20 min; (s)-Mephenytoin: 20 min; Midazolam: 5 min; Testosterone: 10 min). Samples were vortexed for 5 minutes and centrifuged at 3220 g for 40 minutes at 4° C. And then 100 μL of the supernatant was transferred to a new 96-well plate with 100 μL or 200 μL water (depends on the LC-MS signal response and peak shape) for LC-MS/MS analysis.
(§6) All experiments were performed in duplicates.
(§7) Inhibition percentages for compounds against CYP1A2, CYP2C8, CYP2C9, CYP2C19, and […]

The target in a further data set is T2, CYP2C8 (Homo sapiens, UniProt P10632).
T2 construct: from tissue; host or cells: human liver microsomes
T2 sequence (P10632 1-490): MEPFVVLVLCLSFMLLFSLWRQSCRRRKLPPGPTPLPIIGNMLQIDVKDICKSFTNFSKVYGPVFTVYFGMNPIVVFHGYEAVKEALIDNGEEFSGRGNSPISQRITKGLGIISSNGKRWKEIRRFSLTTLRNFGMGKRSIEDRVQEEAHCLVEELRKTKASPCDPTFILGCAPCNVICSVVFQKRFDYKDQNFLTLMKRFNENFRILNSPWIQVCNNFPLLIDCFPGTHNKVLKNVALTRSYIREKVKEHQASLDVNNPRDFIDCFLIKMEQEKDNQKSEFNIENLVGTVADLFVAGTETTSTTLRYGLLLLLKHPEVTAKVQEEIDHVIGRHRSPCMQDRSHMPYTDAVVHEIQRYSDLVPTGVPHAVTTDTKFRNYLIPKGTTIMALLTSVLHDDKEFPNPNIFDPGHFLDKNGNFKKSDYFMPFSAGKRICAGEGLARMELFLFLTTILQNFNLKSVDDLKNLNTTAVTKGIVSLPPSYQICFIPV
The data set can be described thus: Cytochrome P450 inhibition, CYP2C8. Type of data set: in vitro ADME. As to conditions: probe Paclitaxel (5 μM); 10 μM compound, human liver microsomes, substrate Paclitaxel; read-out: Inhibition percentage CYP2C8 (Paclitaxel). The protocol:
as §1, §2, §3
3) For CYP2C8 inhibition, 1 μL of specific drug substrate (Paclitaxel: 1 mM) was added at the final concentration of 5 μM to the above solution.
as §4, §5, §6, §7
On the technique in general: Microsomes from liver hold many membrane-bound enzymes, among them those of drug oxidation.

The target in another data set is T3, CYP2C19 (Homo sapiens, UniProt P33261).
T3 construct: from tissue; host or cells: human liver microsomes
The data set can be described thus: Cytochrome P450 inhibition, CYP2C19. In kind it is in vitro ADME. As to conditions: probe (s)-Mephenytoin (50 μM); 10 μM compound, human liver microsomes, substrate (s)-Mephenytoin; read-out: Inhibition percentage CYP2C19 ((s)-Mephenytoin). The protocol:
as §1, §2, §3
5) For CYP2C19 inhibition, 1 μL of specific drug substrate ((s)-Mephenytoin: 10 mM) was added at the final concentration of 50 μM to the above solution.
as §4, §5, §6, §7

For the next data set, the target named is T4, Ba/F3-ETV6-NTRK3 (Homo sapiens, UniProt Q16288).
T4 construct: Ba/F3 cells with TPM3-NTRK1 or ETV6-NTRK3 fusion mutation gene stably overexpressed named Ba/F3-TPM3-NTRK1 and Ba/F3-ETV6-NTRK3; fused on or other part: P41212 (Transcription factor ETV6)
The data set can be described thus: Ba/F3-ETV6-NTRK3 cells proliferation assay. In kind it is cell-based. As to conditions: 72 h, CellTiter Glo. The method in brief: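 Ba/F3 cells stably expressing TPM3-NTRK1 or ETV6-NTRK3 fusions, 2000/well, exposed 72 h to compound at 300 to 0.05 nM final (3-fold series, 0.5% DMSO). Viability by CellTiter-Glo luminescence; IC50 by four-parameter nonlinear regression.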
On the technique in general: In ATP-based viability assays light output follows the ATP content of the culture.

Another data set deals with NTRK1-G595R (Homo sapiens, UniProt P04629, G595R). The data set can be described thus: NTRK1-G595R cell proliferation assay (Table 13). Type of data set: cell-based.
NTRK1-G595R, sequence (P04629 33-796 G595R): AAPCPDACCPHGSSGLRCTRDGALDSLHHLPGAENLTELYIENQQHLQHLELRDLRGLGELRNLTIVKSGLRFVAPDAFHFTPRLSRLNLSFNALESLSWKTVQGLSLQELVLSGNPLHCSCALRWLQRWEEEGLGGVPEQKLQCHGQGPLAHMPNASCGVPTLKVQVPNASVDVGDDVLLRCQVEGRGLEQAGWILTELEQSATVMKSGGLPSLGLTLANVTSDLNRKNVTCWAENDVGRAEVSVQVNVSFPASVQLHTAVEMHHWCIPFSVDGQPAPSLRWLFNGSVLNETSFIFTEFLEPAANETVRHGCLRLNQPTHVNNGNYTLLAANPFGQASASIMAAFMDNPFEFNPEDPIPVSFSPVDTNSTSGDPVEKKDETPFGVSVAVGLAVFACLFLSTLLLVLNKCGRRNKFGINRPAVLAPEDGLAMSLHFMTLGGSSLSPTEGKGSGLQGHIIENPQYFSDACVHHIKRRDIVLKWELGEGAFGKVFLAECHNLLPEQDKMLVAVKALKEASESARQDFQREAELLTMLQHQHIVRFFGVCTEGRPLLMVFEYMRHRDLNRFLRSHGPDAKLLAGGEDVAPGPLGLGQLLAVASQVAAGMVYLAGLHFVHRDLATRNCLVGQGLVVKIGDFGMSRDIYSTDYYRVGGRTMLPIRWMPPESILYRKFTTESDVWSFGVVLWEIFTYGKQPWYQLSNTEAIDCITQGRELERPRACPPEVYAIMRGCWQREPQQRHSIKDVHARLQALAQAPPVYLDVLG

T3 sequence (P33261 whole entry): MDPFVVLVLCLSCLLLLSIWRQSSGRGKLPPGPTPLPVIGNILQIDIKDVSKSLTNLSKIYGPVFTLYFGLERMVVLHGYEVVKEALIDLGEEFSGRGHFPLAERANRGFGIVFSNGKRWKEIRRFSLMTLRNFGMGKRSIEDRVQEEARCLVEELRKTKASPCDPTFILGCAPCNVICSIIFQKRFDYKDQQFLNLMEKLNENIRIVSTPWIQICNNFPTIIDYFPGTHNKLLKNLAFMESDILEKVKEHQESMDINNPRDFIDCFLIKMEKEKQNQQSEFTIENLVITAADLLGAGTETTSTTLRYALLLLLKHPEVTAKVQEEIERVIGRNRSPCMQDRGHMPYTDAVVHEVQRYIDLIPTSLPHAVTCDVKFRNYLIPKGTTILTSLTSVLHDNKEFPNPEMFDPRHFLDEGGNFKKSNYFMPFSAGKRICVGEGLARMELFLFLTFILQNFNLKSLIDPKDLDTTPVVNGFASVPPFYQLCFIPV
T1 sequence (P08684 whole entry): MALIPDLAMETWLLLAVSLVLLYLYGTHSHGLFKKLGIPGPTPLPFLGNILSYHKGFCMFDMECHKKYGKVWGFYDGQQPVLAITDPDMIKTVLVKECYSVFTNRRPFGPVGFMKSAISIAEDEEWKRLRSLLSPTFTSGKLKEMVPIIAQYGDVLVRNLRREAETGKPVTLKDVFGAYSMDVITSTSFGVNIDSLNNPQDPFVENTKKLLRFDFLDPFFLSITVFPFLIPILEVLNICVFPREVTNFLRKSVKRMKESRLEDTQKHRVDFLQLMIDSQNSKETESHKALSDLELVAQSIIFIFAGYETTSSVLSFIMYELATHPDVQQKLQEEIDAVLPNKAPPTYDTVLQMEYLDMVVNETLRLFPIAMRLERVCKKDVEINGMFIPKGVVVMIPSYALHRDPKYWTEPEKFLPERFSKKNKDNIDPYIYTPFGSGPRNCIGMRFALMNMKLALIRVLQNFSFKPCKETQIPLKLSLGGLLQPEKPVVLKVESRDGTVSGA
T4 sequence (Q16288 whole entry, the tested form may be a part): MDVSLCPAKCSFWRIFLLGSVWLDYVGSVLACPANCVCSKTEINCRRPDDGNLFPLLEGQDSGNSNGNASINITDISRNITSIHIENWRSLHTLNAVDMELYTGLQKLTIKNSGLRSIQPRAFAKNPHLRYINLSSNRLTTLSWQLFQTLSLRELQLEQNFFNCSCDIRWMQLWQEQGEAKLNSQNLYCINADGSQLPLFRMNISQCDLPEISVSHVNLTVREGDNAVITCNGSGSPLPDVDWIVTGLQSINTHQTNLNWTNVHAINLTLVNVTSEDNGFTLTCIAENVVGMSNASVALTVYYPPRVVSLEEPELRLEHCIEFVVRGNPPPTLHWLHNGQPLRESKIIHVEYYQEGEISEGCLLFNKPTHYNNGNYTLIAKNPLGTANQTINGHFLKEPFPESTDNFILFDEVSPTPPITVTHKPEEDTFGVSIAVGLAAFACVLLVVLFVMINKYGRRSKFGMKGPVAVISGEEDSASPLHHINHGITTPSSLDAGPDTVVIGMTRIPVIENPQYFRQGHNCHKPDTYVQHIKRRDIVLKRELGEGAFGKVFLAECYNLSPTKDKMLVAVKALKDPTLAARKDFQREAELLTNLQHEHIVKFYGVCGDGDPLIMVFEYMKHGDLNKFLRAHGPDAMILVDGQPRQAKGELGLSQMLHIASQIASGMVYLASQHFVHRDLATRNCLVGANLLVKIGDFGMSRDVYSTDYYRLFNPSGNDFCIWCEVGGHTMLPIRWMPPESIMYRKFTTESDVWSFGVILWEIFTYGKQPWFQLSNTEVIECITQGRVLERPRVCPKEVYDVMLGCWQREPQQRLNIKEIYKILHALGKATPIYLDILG

Regarding `Cc1nnc(-c2cnn3ccc(N4CCCC4c4cc(F)ccc4F)nc23)[nH]1` (centres unmarked) [Comparative compound A, 5-[2-(2,5-Difluorophenyl)pyrrolidin-1-yl]-3-(5-methyl-1H-1,2,4-triazol-3-yl)pyrazolo[1,5-a]pyrimidine, reference compound], on CYP3A4, the inhibition (as a rule, the change of the read-out against control, counted positive when it falls) at 5 min, 10 µM came out at 70.1% and the inhibition at 10 min, 10 µM was determined as 38.3%. Besides, the inhibition at 10 min, 10 µM on CYP2C8 amounted to 19.3%. The inhibition at 20 min, 10 µM at CYP2C19 amounted to 13%.

Turning to `C[C@H](O)c1nnc(-c2cnn3ccc(N4CCC[C@@H]4c4cc(F)ccc4F)nc23)[nH]1` [Compound 4, (S)-1-(5-(5-((R)-2-(2,5-difluorophenyl)pyrrolidin-1-yl)pyrazolo[1,5-a]pyrimidin-3-yl)-4H-1,2,4-triazol-3-yl)ethan-1-ol], at CYP3A4, the inhibition at 5 min, 10 µM is 20% and the inhibition at 10 min, 10 µM came to 22.8%. Moreover, the inhibition at 10 min, 10 µM at CYP2C8 is 18.2%. Besides, on Ba/F3-ETV6-NTRK3, 2.78 nM corresponded to half-maximal inhibition (IC50). On CYP2C19, the inhibition at 20 min, 10 µM worked out at 7.23%.

In the case of `CC(C)(O)c1nnc(-c2cnn3ccc(N4CCC[C@@H]4c4cc(F)ccc4F)nc23)[nH]1` [Compound 7, (R)-2-(5-(5-(2-(2,5-difluorophenyl)pyrrolidin-1-yl)pyrazolo[1,5-a]pyrimidin-3-yl)-4H-1,2,4-triazol-3-yl)propan-2-ol], on CYP3A4, the inhibition at 5 min, 10 µM amounted to 6.97%. Further, the inhibition at 10 min, 10 µM at CYP3A4 came out at 5.7%; at CYP2C8, 1.37%. Moreover, the IC50 (usually the midpoint of a concentration-inhibition curve) against NTRK1-G595R is 107 nM; against Ba/F3-ETV6-NTRK3, 5.68 nM. Moreover, the inhibition at 20 min, 10 µM on CYP2C19 was 6.79%.

At Ba/F3-ETV6-NTRK3, `C[C@H](N)c1nnc(-c2cnn3ccc(N4CCC[C@@H]4c4cc(F)ccc4F)nc23)[nH]1` [Compound 11, (S)-1-(5-(5-((R)-2-(2,5-difluorophenyl)pyrrolidin-1-yl)pyrazolo[1,5-a]pyrimidin-3-yl)-4H-1,2,4-triazol-3-yl)ethan-1-amine] registered an IC50 of 5.79 nM.

As to `OC(c1nnc(-c2cnn3ccc(N4CCC[C@@H]4c4cc(F)ccc4F)nc23)[nH]1)C(F)(F)F` (stereo partly drawn) [Compound 47, 1-(5-(5-((R)-2-(2,5-difluorophenyl)pyrrolidin-1-yl)pyrazolo[1,5-a]pyrimidin-3-yl)-4H-1,2,4-triazol-3-yl)-2,2,2-trifluoroethan-1-ol], on CYP3A4, the inhibition at 5 min, 10 µM came out at 22.4% and the inhibition at 10 min, 10 µM came out at 29.5%. For the same compound, the inhibition at 10 min, 10 µM at CYP2C8 came out at 32.8%. On CYP2C19, the inhibition at 20 min, 10 µM was 20.3%.
